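All cell lines were grown in 96-well plates and treated with compound for 48 hours. TGI is the concentration that stops growth completely.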
How the values were obtained:
Assay in all cases: NCI tumour cell line growth inhibition, 48 h
786-0 renal = test system: 786-0 renal
A498 renal = test system: A498 renal
A549 NSCLC = test system: A549 NSCLC
ACHN renal = test system: ACHN renal
BT-549 breast = test system: BT-549 breast
CAKI-1 renal = test system: CAKI-1 renal
CCRF-CEM leukemia = test system: CCRF-CEM leukemia
COLO 205 colon = test system: COLO 205 colon
DU-145 prostate = test system: DU-145 prostate
EKVX NSCLC = test system: EKVX NSCLC
HCC-2998 colon = test system: HCC-2998 colon
HCT-116 colon = test system: HCT-116 colon
HCT-15 colon = test system: HCT-15 colon
HOP-62 NSCLC = test system: HOP-62 NSCLC
HOP-92 NSCLC = test system: HOP-92 NSCLC
HS 578T breast = test system: HS 578T breast
HT29 colon = test system: HT29 colon
IGROV1 ovarian = test system: IGROV1 ovarian
K-562 leukemia = test system: K-562 leukemia
KM12 colon = test system: KM12 colon
LOX IMVI melanoma = test system: LOX IMVI melanoma
M14 melanoma = test system: M14 melanoma
MALME-3M melanoma = test system: MALME-3M melanoma
MCF7 breast = test system: MCF7 breast
MDA-MB-231 breast = test system: MDA-MB-231 breast
MDA-MB-435 = test system: MDA-MB-435
MDA-N = test system: MDA-N
MOLT-4 leukemia = test system: MOLT-4 leukemia
NCI-H226 lung = test system: NCI-H226 lung
NCI-H23 lung = test system: NCI-H23 lung
NCI-H460 lung = test system: NCI-H460 lung
NCI-H522 lung = test system: NCI-H522 lung
NCI/ADR-RES ovarian = test system: NCI/ADR-RES ovarian
OVCAR-4 ovarian = test system: OVCAR-4 ovarian
OVCAR-5 ovarian = test system: OVCAR-5 ovarian
OVCAR-8 ovarian = test system: OVCAR-8 ovarian
PC-3 prostate = test system: PC-3 prostate
RPMI-8226 leukemia = test system: RPMI-8226 leukemia
RXF 393 renal = test system: RXF 393 renal
SF-268 CNS = test system: SF-268 CNS
SF-295 CNS = test system: SF-295 CNS
SF-539 CNS = test system: SF-539 CNS
SK-MEL-2 melanoma = test system: SK-MEL-2 melanoma
SK-MEL-28 melanoma = test system: SK-MEL-28 melanoma
SK-MEL-5 melanoma = test system: SK-MEL-5 melanoma
SK-OV-3 ovarian = test system: SK-OV-3 ovarian
SN12C renal = test system: SN12C renal
SNB-19 CNS = test system: SNB-19 CNS
SNB-75 CNS = test system: SNB-75 CNS
SR leukemia = test system: SR leukemia
SW-620 colon = test system: SW-620 colon
T-47D breast = test system: T-47D breast
TK-10 renal = test system: TK-10 renal
U251 CNS = test system: U251 CNS
UACC-257 melanoma = test system: UACC-257 melanoma
UACC-62 melanoma = test system: UACC-62 melanoma
UO-31 renal = test system: UO-31 renal

Measured: TGI

CCOC(=O)/C=C/C1OC(C)(C)OC1/C=C/C(=O)OCC (configuration not stated)
48.9 µM: NCI-H460 lung
94.9 µM: EKVX NSCLC
63.3 µM: MOLT-4 leukemia
47.4 µM: HCC-2998 colon
70.7 µM: KM12 colon
41.8 µM: HOP-92 NSCLC
57.7 µM: CCRF-CEM leukemia
87.7 µM: SK-MEL-28 melanoma
48.4 µM: K-562 leukemia
43.3 µM: SR leukemia
54.7 µM: CAKI-1 renal
82.7 µM: OVCAR-8 ovarian
49.2 µM: SW-620 colon
64.2 µM: HCT-15 colon
47.7 µM: RPMI-8226 leukemia
57.6 µM: HT29 colon
51.1 µM: NCI-H522 lung
> 100 µM: all other assays above

Reference: PubChem BioAssay (NCI)
